Data reported in ChEMBL document CHEMBL3046371, “Benzimidazole derivatives: synthesis, leishmanicidal effectiveness, and molecular docking studies” (Med Chem Res, 2013).
≈ marks a conversion by molar mass, not a printed value.

System: Leishmania major
Experiment: Antileishmanial activity against promastigote form of Leishmania major after 72 hr by Neubauer counting analysis
Format: functional, organism-based

| Compound | IC50 [mg/L] |
| --- | --- |
| O=[N+]([O-])c1cccc(-c2nc3cc([N+](=O)[O-])ccc3[nH]2)c1 | 0.79 (≈ 2.78 µM) |
| O=[N+]([O-])c1ccc2[nH]c(-c3ccc[nH]3)nc2c1 | 0.91 (≈ 3.99 µM) |
| O=[N+]([O-])c1ccc2[nH]c(-c3cccs3)nc2c1 | 0.82 (≈ 3.34 µM) |
| O=[N+]([O-])c1ccccc1-c1nc2ccccc2[nH]1 | 0.69 (≈ 2.88 µM) |
| COc1cccc(-c2nc3cc([N+](=O)[O-])ccc3[nH]2)c1 | 0.82 (≈ 3.05 µM) |
| COc1ccc(-c2nc3ccccc3[nH]2)cc1 | 0.81 (≈ 3.61 µM) |
| Clc1ccccc1-c1nc2ccccc2[nH]1 | 0.78 (≈ 3.41 µM) |
| Clc1ccc(-c2nc3ccccc3[nH]2)cc1 | 0.72 (≈ 3.15 µM) |
| Cc1ccc(-c2nc3ccccc3[nH]2)cc1 | 0.79 (≈ 3.79 µM) |
| CCCCOc1ccc(-c2nc3cc([N+](=O)[O-])ccc3[nH]2)cc1 | 0.76 (≈ 2.44 µM) |
| O=[N+]([O-])c1ccc2[nH]c(-c3ccc(Cl)cc3)nc2c1 | 0.64 (≈ 2.34 µM) |
| c1cncc(-c2nc3ccccc3[nH]2)c1 | 0.64 (≈ 3.28 µM) |
| O=[N+]([O-])c1ccc2[nH]c(-c3ccccn3)nc2c1 | 0.73 (≈ 3.04 µM) |
| O=[N+]([O-])c1ccc(-c2nc3ccccc3[nH]2)cc1 | 0.71 (≈ 2.97 µM) |
| O=[N+]([O-])c1cccc(-c2nc3ccccc3[nH]2)c1 | 0.82 (≈ 3.43 µM) |
| Cc1ccc(-c2nc3cc([N+](=O)[O-])ccc3[nH]2)o1 | 0.64 (≈ 2.63 µM) |
| c1c[nH]c(-c2nc3ccccc3[nH]2)c1 | 0.63 (≈ 3.44 µM) |
| O=[N+]([O-])c1ccc2[nH]c(-c3ccccc3)nc2c1 | 0.8 (≈ 3.34 µM) |
| O=[N+]([O-])c1ccc2[nH]c(-c3ccccc3[N+](=O)[O-])nc2c1 | 0.73 (≈ 2.57 µM) |

| Compound | IC50 [mg/L] |
| --- | --- |
| c1ccc2[nH]c(-c3c[nH]c4ccccc34)nc2c1 | 0.87 (≈ 3.73 µM) |
| Fc1ccc(-c2nc3ccccc3[nH]2)cc1 | 0.79 (≈ 3.72 µM) |
| Cc1ccc(-c2nc3ccccc3[nH]2)o1 | 0.84 (≈ 4.24 µM) |
| Oc1ccc(-c2nc3ccccc3[nH]2)cc1 | 0.92 (≈ 4.38 µM) |
| COc1ccc(-c2nc3cc([N+](=O)[O-])ccc3[nH]2)cc1 | 0.85 (≈ 3.16 µM) |
| c1csc(-c2nc3ccccc3[nH]2)c1 | 0.62 (≈ 3.1 µM) |
| CCCCOc1ccc(-c2nc3ccccc3[nH]2)cc1 | 0.65 (≈ 2.44 µM) |
| O=[N+]([O-])c1ccc2nc(-c3ccccc3Cl)[nH]c2c1 | 0.91 (≈ 3.33 µM) |
| O=[N+]([O-])c1ccc2[nH]c(-c3ccc(F)cc3)nc2c1 | 0.77 (≈ 2.99 µM) |
| Cc1ccc(-c2nc3cc([N+](=O)[O-])ccc3[nH]2)cc1 | 0.88 (≈ 3.47 µM) |
| CC(C)c1ccc(-c2nc3cc([N+](=O)[O-])ccc3[nH]2)cc1 | 0.8 (≈ 2.84 µM) |
| O=[N+]([O-])c1ccc(-c2nc3cc([N+](=O)[O-])ccc3[nH]2)cc1 | 0.75 (≈ 2.64 µM) |
| c1ccc2[nH]c(-c3ccncc3)nc2c1 | 0.88 (≈ 4.51 µM) |
| COc1cccc(-c2nc3ccccc3[nH]2)c1 | 0.77 (≈ 3.43 µM) |
| O=[N+]([O-])c1ccc2[nH]c(-c3c[nH]c4ccccc34)nc2c1 | 0.62 (≈ 2.23 µM) |
| CC(C)c1ccc(-c2nc3ccccc3[nH]2)cc1 | 0.64 (≈ 2.71 µM) |
| c1ccc(-c2nc3ccccc3[nH]2)cc1 | 0.68 (≈ 3.5 µM) |
| O=[N+]([O-])c1ccc2[nH]c(-c3cccnc3)nc2c1 | 0.79 (≈ 3.29 µM) |
